Data published in US11974990B2, “TXNIP-TRX complex inhibitors and methods of using the same” (City of Hope, priority 2018, dated 2024).
Entries after “also recorded” stand apart in the source; their conditions may differ.

What was measured:
TXNIP mRNA [1] = experiment: TXNIP mRNA expression (RT-PCR) in THP1 cells under 25 mM glucose; assay type: cell-based, human; settings: THP1, 25 mM glucose, concentration range of C1, 72 h (FIG. 9A)
Procedure: FIGS. 9A-9B. FIG. 9A. […] THP1 cells were cultured in 25 mM glucose with the indicated concentrations of C1 for 72 h. Cell were collected for total RNA preparation. RT-PCR were performed and data shown are the mean+SEM from triplicates. Statistical analysis was performed using one-way ANOVA, *<0.0001. FIG. 9B. […] THP1 cells were cultured in 25 mM glucose and C1 (uM) as indicated for 72 hours and collected for total RNA preparation. RT-PCR was performed. Data shown are the mean+SEM from triplicates. Statistical analysis was performed using one-way ANOVA: *<0.02; **<0.0001.
FIG. 13. C1 analogs affects TXNIP mRNA expression in THP1 cells. THP1 cells were cultured in 25 mM glucose with 5 uM of compounds for 72 h. Total RNA was collected and RT-PCR was performed in triplicate and data shown are the mean+SEM. Statistical analysis was performed using one-way ANOVA: *<0.0001.
RNA extraction and quantitative RT-PCR. RNA was extracted using the Direct-zol™ RNA MiniPrep Plus (Zymo Research). […] Diluted cDNA was quantified using real-time PCR performed with Power SYBR Green qPCR MasterMix (Applied Biosystem) and 7500 real-time PCR system (Applied Biosystems). […]
RNA extraction and quantitative RT-PCR. […] Diluted cDNA was quantified using real-time PCR performed with Power SYBR Green qPCR MasterMix (Applied Biosystem) and 7500 real-time PCR system (Applied Biosystems). […]

TXNIP mRNA [2] = experiment: TXNIP mRNA expression (RT-PCR) in primary human pancreatic islets; assay type: cell-based; settings: human pancreatic islets (500 IEQ), 25 mM glucose, 48 h (FIG. 18)
Procedure: FIG. 18. […] Human pancreatic islets (500 IEQ) were cultured with PIM(R) (Prodo Labs) in 25 mM glucose with C1 as indicated for 48 h. Total RNA was collected. RT-PCR was performed in triplicate and data shown are the mean+SEM. Statistical analysis was performed using one-way ANOVA: *<0.0001.
RNA extraction and quantitative RT-PCR. RNA was extracted using the Direct-zol™ RNA MiniPrep Plus (Zymo Research). Reverse transcription of RNA samples into cDNA was performed using the GeneAmp RNA PCR Kit (Applied Biosystems), dNTP (from Roche Applied Science), Rnase inhibitor, MULV Reverse Transcriptase and Random hexamers reagent (all from Invitrogen). Diluted cDNA was quantified using real-time PCR performed with Power SYBR Green qPCR MasterMix (Applied Biosystem) and 7500 real-time PCR system (Applied Biosystems). The HPRT1 gene was used as an internal control.

CC(C)C(C(=O)O)N1C(=O)c2ccncc2C1=O (centres unmarked) [Compound C1, 2-(1,3-dioxo-1,3-dihydro-2H-pyrrolo[3,4-c]pyridin-2-yl)-3-methylbutanoic acid]
TXNIP mRNA expression (TXNIP mRNA [1]): inhibits TXNIP mRNA expression; also recorded: attenuate high glucose induced expression of inflammatory cytokine molecules and TXNIP in monocytes; also recorded: inhibit TXNIP expression in a dose-dependent manner | TXNIP mRNA (TXNIP mRNA [2]): targets TXNIP mRNA; also recorded: efficiently inhibited TXNIP mRNA
